Where a name gives a salt, the structure may show the parent alone.
Key:
Reserpine ptosis = experiment: inhibition of reserpine ptosis (oral); type: in vivo; details: Mus musculus, 1.5 h, Swiss mice, reserpine 5 mg/kg intraperitoneal, compounds orally at the same time, ptosis marked 1 h 30 min later
Procedure: The mood-modifying activity of the compounds is evaluated by standardized tests such as inhibition of known reserpine ptosis. Reserpine ptosis may be induced by methods such as those described in the literature. For example, Rubin, et al, [J. Pharmacol, Exp. Ther. 120: 125(1957)] induced ptosis in Swiss mice by intraperitoneal injection of 5 mg/kg of reserpine. This ptosis was marked 1 h 30 min later. Compounds to be tested for reserpine inhibition were administered orally at the same time as the reserpine was injected.

[1] = lethal dose (LD50) determined orally in Swiss mice; details: mouse, in vivo, oral

SMILES | ED50 (Reserpine ptosis) | LD50 [1]
CN(C)CCC=C1c2ccccc2CCc2ccccc21 [AMITRIPTYLINE, 5-(3-dimethylaminopropylidene)dibenzo[a,d]-1,4-cycloheptadiene hydrochloride, reference compound] | 10 mg/kg | 
NC1=Nc2ccccc2C(c2ccccc2)CN1 (centres unmarked) [Example 1, 2-Amino-5-phenyl-4,5-3H-dihydro-1,3-benzodiazepine hydrochloride] | 18 mg/kg | 600 mg/kg
Cc1ccc(C2CNC(N)=Nc3ccccc32)cc1 (centres unmarked) [Example 3, 2-Amino-5-(4-methylphenyl)-4,5-3H-hydro-1,3-benzodiazepine hydrochloride] | 10 mg/kg | 330 mg/kg
NC1=Nc2ccccc2C(c2ccc(Cl)cc2)CN1 (centres unmarked) [Example 4, 2-Amino-5-(4-chlorophenyl)-4,5-3H-dihydro-1,3-benzodiazepine hydrochloride] | 11 mg/kg | 1200 mg/kg
Cc1ccc(C2CNC(N)=Nc3ccc(C)cc32)cc1 (centres unmarked) [Example 8, 2-Amino-7-methyl-5-(4-methylphenyl)-4,5-3H-dihydro-1,3-benzodiazepine hydrochloride] | 3 mg/kg | 2400 mg/kg
CCOC(=O)NC1=Nc2ccccc2C(c2ccccc2)CN1 (centres unmarked) [Example 48, 2-amino-(5-Phenyl-4,5-3H-dihydro-1,3-benzodiazepin)yl ethyl carbamate] | 13 mg/kg | > 3200 mg/kg

From patent US4554273A, “2-Amino-5-phenyl-1,3-benzodiazepines” (Lipha Lyonnaise Industrielle Pharmaceutique, priority 1983, dated 1985)
